Several values for one entry are separate records, joined by “and”; a condition that tells them apart may be missing. Equal entries are not always repeated. *1 amine or outer side, *2 acyl side, *3 side chain or, on linkers, in order; H or OH if unused. Where no end group is shown, it is not given here. [ ]: non-standard residue; d: D form. The star is where a group is joined. 125I‑Tyr = O=C([C@H](Cc1ccc(O[*:3])c([125I])c1)N[*:1])[*:2]; Octanoyl = CCCCCCCC(=O)*; 125I = [125I]*
Legend:
CAC membranes = assay: Competition binding with [125I-Tyr4]-UAG on CAC membranes; design: species or system human
Text: The specific binding of [^125I-Tyr^4]-UAG (calculated as difference between binding in the absence, control, and in the presence of UAG) represented about 75% of the control value (P<0.001) and was detected either on fresh (0.25 and 0.26 fmol) or frozen-thawed (0.20 and 0.33 fmol) CAC membranes from two different cell preparations.

CAC [1] = assay: Detection of ROS in CAC (DCF-DA assay, FACS); format: cell-based, human; conditions: for level of ROS production in AGE-cultured cells: AGE-cultured CAC, FIG. 1C, 1F; for baseline level of ROS production: CAC, compared to untreated cells, FIG. 1B, 1E
Experimental: First, cell-cycle progression in response to UAG and AG was evaluated. […] To investigate whether this effect relies on inhibition of baseline ROS production, DCF-DA assay was performed. […] H2O2 was used as positive control. AGE-mediated damage signals mainly rely on ROS production (Ref. 29). […] Detection of ROS—DCF-DA (0.5 μM final concentration) was added to CAC in the indicated culture conditions. At the indicated times, the cells were subjected to FACS analysis and processed as previously described (Ref. 22). H2O2 was used as positive control.

CAC [2] = assay: CAC cell-cycle progression (percentage of cells in S phase, FACS); format: cell-based, human; conditions: cultured CAC; effect still evident after 7 days of culture; FIG. 1A
Experimental: First, cell-cycle progression in response to UAG and AG was evaluated. […] To investigate whether this effect relies on inhibition of baseline ROS production, DCF-DA assay was performed. […] H2O2 was used as positive control. AGE-mediated damage signals mainly rely on ROS production (Ref. 29). […] Isolation and Culture of CAC from Peripheral Blood Mononuclear Cells—Peripheral-blood mononuclear cells (PB-MNC) isolated by Fycoll Histopaque 1077 (Sigma) were resuspended in 20% FBS 199 Medium and plated on fibronectin-coated dishes (Biocoat, Becton Dickinson Labware) as described by Hill et al. (Ref. 19). Human UAG studies were performed on CAC recovered from normal donors and diabetic patients. The purity of sorted cells was assessed by FACS analysis (Ref. 20). For experiments, the isolated CAC were cultured under 5% CO2 at 37° C. for 4 days on 20 μg/ml fibronectin-coated dishes in EGM-2 medium containing 10% FBS, hydrocortisone, human Fibroblast Growth Factor, Vascular Endothelial Growth Factor, Insulin Growth Factor 1, ascorbic acid, human Epidermal Growth Factor, gentamicin and amphotericin-B (Cambrex, Walkersville, Md., USA) alone or in combination with 1 μM UAG and 1.2 mg/ml AGE. […] Cell surface molecules were evaluated by flow cytometry as previously described (Ref. 24). Frequency of marker-positive cells is expressed as mean±standard deviation (SD).

CAC [3] = assay: CAC mobilization assay in healthy subjects and diabetic patients; format: in vivo, human; conditions: diabetic patients compared to normal subjects, treated for 6 hours; FIG. 3B
Experimental: This observation led to investigate the effect of UAG treatment on BM CAC mobilization. To this end, normal subject and diabetic patients were treated with UAG or saline for 6 hours. After treatment, CAC were recovered from 4 control subjects and 4 diabetic patients, analyzed by FACS analysis and counted. […] Black lines refer to preimmune IgG used as negative control and grey lines refer to surface marker expression. Similar results were obtained when CAC from untreated diabetic patients or untreated or treated healthy subjects were analyzed (data not shown).
All the subjects underwent the following testing session: • UAG (3.0 μg/kg/h iv. as infusion for 12 h from 0 to 12 hours); • isotonic saline (infusion from 0 to 12 hours).
Mobilization assay—CAC recovered from healthy subjects and diabetic patients, treated with UAG or saline for 6 h and 12 h, were evaluated. Total number of MNC was counted by 3 independent investigators. The percentage of CAC was calculated by comparing CAC obtained from diabetic patients and healthy donors, treated for 6 h and 12 h with UAG, AG or saline, to CAC recovered at time 0.

CAC [4] = assay: Expansion (S phase) of CAC recovered from treated patients, cultured with IL-3; format: in vivo, human; conditions: cells recovered from treated diabetic patients; FIG. 3C
Experimental: To confirm their vascular features, the cells recovered from patients and controls were cultured with IL-3; which is able to induce expansion and arterial morphogenesis of CD45^+ cells derived from both peripheral blood and BM (Ref. 28).
Flow Cytometry—To analyze CAC cell-cycle progression, cells recovered from diabetic, healthy subjects, NOD/SCID, ob/ob and wt mice, were cultured in EBM-2 supplemented with IL-3 (10 ng/ml), FACS analysis was performed as previously described (Ref. 20). Cell surface molecules were evaluated by flow cytometry as previously described (Ref. 24). Frequency of marker-positive cells is expressed as mean±standard deviation (SD).

cardiomyocytes = conditions: Ref. 8; cited from earlier work
[5] = test system: human umbilical vein endothelial cells (HUVECs); conditions: Ref. 5; cited from earlier work
[6] = test system: human microvascular endothelial cells (HMVECs); conditions: exogenous AG, Ref. 4; cited from earlier work
human arteries = conditions: Ref. 35; cited from earlier work
[7] = target: specific binding sites for UAG on CAC membranes; assay: saturation binding on CAC membranes
[8] = target: specific binding sites for UAG on CAC membranes; assay: saturation binding on CAC membranes, Scatchard analysis
[9] = target: specific binding sites for UAG on CAC membranes; assay: radioligand binding, fresh CAC membranes, two cell preparations
[10] = target: specific binding sites for UAG on CAC membranes; assay: radioligand binding, frozen-thawed CAC membranes, two cell preparations
[11] = target: specific binding sites for UAG on CAC membranes; assay: radioligand binding to CAC membranes; difference between binding without and with 100 nM unlabelled UAG

With “[^125I-Tyr^4]-UAG: radioligand used for binding to CAC membranes (GSS[125I‑Tyr]LSPEHQRVQQRKESKKPPAKLQPR)” the “specific binding of [125I-Tyr4]-UAG” value (CAC membranes; difference between binding in the absence and in the presence of 100 nM UAG, P<0.001) was “about 75 % of the control value”, the “specific binding of [125I-Tyr4]-UAG” value (CAC membranes; fresh CAC membranes, two different cell preparations) was 0.25 fmol and 0.26 fmol and the “specific binding of [125I-Tyr4]-UAG” value (CAC membranes; frozen-thawed CAC membranes, two different cell preparations) was 0.20 fmol and 0.33 fmol.

For “Ser-Pro-Glu-His-Gln-Arg-Val-Gln (SPEHQRVQ; not fully specified (C-terminus); printed as Ser-Pro-Glu-His-Gln-Arg-Val-Gln; listed as Homo sapiens) [UAG (6-13)]”, the “level of ROS production in AGE-cultured cells” value (CAC [1]) was “the level of ROS production in AGE-cultured cells was reduced”, the “baseline level of ROS production” value (CAC [1]) was “reduces the baseline level of ROS production” and the “inhibition of binding of [125I-Tyr4]-UAG to CAC membranes” value (CAC membranes; 100 nM competitor, 0.25 nM radioligand, FIG. 5A) was “inhibited”.

In the case of “AG: 28 amino acid peptide with an n-octanoyl modification on the Ser3 residue; endogenous ligand of GHSR (GSS(Octanoyl)FLSPEHQRVQQRKESKKPPAKLQPR) [reference compound]”, the “percentage of cells in S phase” value (CAC [2]) is reported as “not AG, was able to induce a significant increase”, the “level of ROS production in AGE-cultured cells” value (CAC [1]) is reported as “no effects could be detected” and the “intracellular ROS production in diabetic-recovered cells” value (CAC [1]; CAC isolated from type 2 diabetic patients, treated in vitro, FIG. 1D) is reported as “not AG, reduced intracellular ROS production”. For the same molecule, the “baseline level of ROS production” value (CAC [1]) was “A protective effect failed to be detected”, the “number of recovered cells (CAC)” value (CAC [3]) was “No statistical differences were detected” and the “cell expansion (cells in S phase) with IL-3” value (CAC [4]) was “not from AG-treated diabetic patients, underwent cell expansion”. For the same molecule, the “inhibition of experimentally-induced cell death” value (cardiomyocytes) was “inhibit experimentally-induced cell death”, the “basal and TNF-alpha-induced chemotactic cytokine production and mononuclear cell adhesion” value [5] was “inhibit basal and TNF-α-induced chemotactic cytokine production and mononuclear cell adhesion” and the “cell proliferation, migration, in vitro angiogenesis and ERK2 phosphorylation” value [6] was “significantly increased cell proliferation, migration, in vitro angiogenesis and ERK2 phosphorylation”. The vasodilator action (human arteries) was “have vasodilator actions in human arteries”.

GSSY(125I)LSPEHQRVQQRKESKKPPAKLQPR (ends and bridges not checked) [[125I-Tyr4]-UAG] gave a concentration at maximum specific binding [7] of 2 nM, a Bmax (fmol/mg membrane protein) [8] of 10.7 and a Kd [8] of 0.48 nM. For the same molecule, the specific binding [9] was 0.25 fmol and 0.26 fmol, the specific binding [10] was 0.2 fmol and 0.33 fmol and the specific binding (% of control value) [11] was 75%.

Reference: US20110160121A1, “UNACYLATED GHRELIN AND ANALOGS AS THERAPEUTIC AGENTS FOR VASCULAR REMODELING IN DIABETIC PATIENTS AND TREATMENT OF CARDIOVASCULAR DISEASE” (ALIZE PHARMA SAS, priority 2008, published 2011)
